Source: US20250312357A1, “PROCESS OF PHYTOCA[…] FORMULATION AND USE IN THE MANAGEMENT OF PAIN” (COUNCIL OF SCIENTIFIC & INDUSTRIAL RESEARCH, priority 2022, published 2025)

Legend:
[1] = system: thermal nociceptive response; test: Tail flick assay for thermal nociceptive response; assay type: in vivo, female BALB/c mice; details: fractions 10 mg/kg p.o., diclofenac sodium 50 mg/kg i.p.
Description: b. In-vivo efficacy study in pain model using the tail flick Assay for assessment of thermal nociceptive response in female BALB/c mice
Tail Flick Test: Prior to starting the test, the intensity of the beam was adjusted to produce a latency of approximately 3-6 sec. The was performed three times for each animal, at 3- to 5-min intervals, and the average of the three times recorded as the average reaction time (seconds). The light beam was delivered about 15 mm from the tip of the tail for mice. To minimize the chance of tissue trauma from heat exposure, a cut-off time of 10 sec was established, at which time the animal was removed from the test (Curr. Protoc. Neurosci., 2007, 41, 8.9.1). Mice were treated with diclofenac sodium (50 mg/kg. i.p.), a standard analgesic drug, CS-016-C2-F2-F2-F2 (10 mg/kg. p.o), CS-016-C2-F2-F3-F2 (10 mg/kg, p.o). and CS-016-B2 (10 mg/kg, p.o) each group contained three animals (n=3).
Tail Flick Assay in Female BALB/c Mice. […] The data were analysed using graph-pad prism software (8.0.2). […]

[2] = system: paclitaxel (PT) induced neuropathic pain; test: Randall Selitto test for mechanical hyperalgesia in paclitaxel induced neuropathic (cancer) pain model; assay type: in vivo, male BALB/c mice; details: paclitaxel 2 mg/kg i.p. (pain induction), all groups; FIGS. 7a and 7b
Description: a. In-Vivo Efficacy Study in Cancer Pain Model Using the Randall Selitto Test for Assessment of Mechanical Hyperalgesia in Male BALB/c Mice
Animals: Male BALB/C mice of weight range 25-30 g were used for evaluation of CS-016-B1 in paclitaxel (PT) induced neuropathic pain. Animals were housed under a 12-hour light/dark cycle in a temperature (65-75° F.; ^˜18-23° C.) and humidity-controlled (40-60%) environment. They were supplied with free access to the food and water (ad libitum). Prior to initiation of study all the animals were acclimatized for one week under standard laboratory conditions, animals were drug naive with no prior procedures performed. All testing were performed from 1 to 4 p.m. […]
Development of neuropathic pain in mice: Neuropathic pain in BALB/C mice was induced by intraperitoneal (i.p.) administration of Paclitaxel (PT) at 2 mg/kg for consecutive 5 days (Sci. Rep., 2014, 4, 1). Before paclitaxel injection baseline values of pain threshold for all the animals were recorded. […]
Experimental protocol: The present study was comprised of five experimental groups. […] Pain threshold was assessed using Randall Selitto for assessment of mechanical hyperalgesia at different time points like 0, 5th, 10th, and 15th days post dosing. […]
Randall Selitto Test: The nociceptive withdrawal threshold was assessed by using the Randall-Selitto algesimeter (Analgesy-Meter, Ugo Basile). […]

How did the “latency time at 4 h relative to baseline” value ([1]; 4 h after treatment) turn out when `O=C(O)Cc1ccccc1Nc1c(Cl)cccc1Cl` [diclofenac sodium] was run?
Its value is “comparable to that of baseline data”.

What about the “time till which the effect on latency time sustained” value [1] of the same molecule?
Its value is 3 h.

Which “mechanical threshold compared with the baseline data” value [2] does the source give for `CC(=O)O[C@H]1C(=O)[C@@]2(C)[C@H]([C@H](OC(=O)c3ccccc3)[C@]3(O)C[C@H](OC(=O)[C@H](O)[C@@H](NC(=O)c4ccccc4)c4ccccc4)C(C)=C1C3(C)C)[C@]1(OC(C)=O)CO[C@@H]1C[C@@H]2O` [paclitaxel] here?
The value was “significant reduction in mechanical threshold”.
